# Source: US20250040539A1, “COMPOSITION COMPRISING AN ANTIMICROBIAL AGENT AND A CARBOXAMIDE” (BASF SE, priority 2021, published 2025)
# Columns and labels:
# Type in all cases: cell-based
# [1] = test system: bacterial mix: Escherichia coli DSM 1576, Alcaligenes faecalis DSM 13644, Pseudomonas aeuginosa ATCC 15442, Staphylococcus aureus ATCC 6538, Burkholderia …; assay: Preservative activity of a basic composition (10% PG in water, pH 7) with 2-phenoxyethanol against bacterial contamination (Example 2.1); conditions: 10% PG + 0.36% PE + 0.04% amide; for d7 [CFU/ml]: day 7; for d14 [CFU/ml]: day 14; for d21 [CFU/ml]: day 21
# Protocol: (§1) An aqueous composition of pH 7 comprising 10% by weight of propyleneglycol (PG) as organic solvent, 0.36% by weight of 2-phenoxyethanol (PE) as antimicrobial and 0.04% by weight of the amide listed in the below table was tested for its preserving activity against bacterial contamination (the weight percentages relate to the total weight of the composition). For this purpose, the samples were contaminated with a bacterial mix consisting of: • Escherichia coli DSM 1576 • Alcaligenes faecalis DSM 13644 • Pseudomonas aeuginosa ATCC 15442 • Staphylococcus aureus ATCC 6538 • Burkholderia cepacia DSM 7288 • Pseudomonas putida DSM 12735
# The samples were inoculated with the bacterial mix at day 0, 7 and 14 to obtain 10E+06 to 10E+07 CFU/ml inoculation in the test samples (compositions listed in the below table) consisting of 10% by weight of propylene glycol in water and stored at 25° C. for 21 days.
# (§2) CFU was determined before re-inoculation at days 7 and 14, and on day 21.
# [2] = test system: fungal mix (including yeasts and molds): Aspergillus brasiliensis DSM 1988, Rhodotorula mucilaginosa DSM 13621, Yarrowia lipolytica DSM 8218; assay: Preservative activity of a basic composition (10% PG in water, pH 7) with 2-phenoxyethanol against fungal contamination (Example 1.1); conditions: 10% PG + 0.36% PE + 0.04% Amide in water, pH 7, 25° C.; for d7 [CFU/ml]: fungal mix inoculated at day 0, 7 and 14 (1-3x10E+05 CFU/ml), day 7 before re-inoculation; for d14 [CFU/ml] / d21 [CFU/ml]: fungal mix inoculated at day 0, 7 and 14; for d14 [CFU/ml]: day 14 before re-inoculation; for d21 [CFU/ml]: day 21
# Protocol: An aqueous composition of pH 7 comprising 10% by weight of propyleneglycol (PG) as organic solvent, 0.36% by weight of 2-phenoxyethanol (PE) as antimicrobial and 0.04% by weight of the amide listed in the below table was tested for its preserving activity against fungal contamination (the percentages are weight percent and relate to the total weight of the composition). For this purpose, the samples were contaminated with a fungal mix (including yeasts and molds) consisting of: • Aspergillus brasiliensis DS M 1988 • Rhodotorula mucilaginosa DSM 13621 • Yarrowia lipolytica DS M 8218
# To control the efficacy, following control compositions were tested: • “Reference”, consisting of only 10% by weight of propylene glycol in water • “Comparative 1” containing 10% by weight of propylene glycol and amide in the given concentration, but no 2-phenoxyethanol • […] in the given concentration, but no amide.
# The samples were inoculated with the fungal mix at day 0, 7 and 14 to obtain a cell density in the range of 1-3×10E+05 CFU/ml (CFU=colony forming units) in the test samples (compositions listed in the below table) and stored at 25° C. for 21 days.
# as §2
# [3] = test system: fungal mix: Aspergillus brasiliensis DSM 1988, Rhodotorula mucilaginosa DSM 13621, Yarrowia lipolytica DSM 8218; assay: Preservative activity in a manual dishwashing composition (MDW, pH 7.1) with 1.0% 2-phenoxyethanol against fungal mix (Example 1.2); conditions: for d7 [CFU/ml]: day 7; for d14 [CFU/ml]: day 14; for d21 [CFU/ml]: day 21
# Protocol: (§3) A manual dish wash detergent (MDW) of pH 7.1 containing the following components was used:
# The samples were contaminated with a fungal mix consisting of: • Aspergillus brasiliensis DSM 1988 • Rhodotorula mucilaginosa DSM 13621 • Yarrowia lipolytica DSM 8218
# The samples were inoculated with the fungal mix at day 0 and 7 to obtain 1-3×10E+05 CFU/ml inoculation in the test sample consisting of the above-defined dish wash detergent MDW and stored at 25° C. for 21 days. CFU was determined before re-inoculation at day 7, and on days 14 and 21.
# Any CFU value at d7, d14 or d21 obtained with a MDW sample of the invention containing 2-phenoxyethanol and amide (MDW+1.0% PE+x % of Amide) lower than the respective value of the comparative example (MDW+1.0% by weight of 2-phenoxyethanol) indicates a better performance of the inventive combination of 2-phenoxyethanol with the amide.
# [4] = test system: bacterial mix: Escherichia coli DSM 1576, Alcaligenes faecalis DSM 13644, Pseudomonas aeruginosa ATCC 15442, Staphylococcus aureus ATCC 6538, Burkholderia …; assay: Preservative activity in a manual dishwashing composition (MDW, pH 7.1) with 2.0% 2-phenoxyethanol against bacterial mix (Example 2.4); conditions: for d7 [CFU/ml]: day 7; for d14 [CFU/ml]: day 14; for d21 [CFU/ml]: day 21
# Protocol: as §3
# (§4) The samples were contaminated with a bacterial mix consisting of: • Escherichia coli DSM 1576 • Alcaligenes faecalis DSM 13644 • Pseudomonas aeruginosa ATCC 15442 • Staphylococcus aureus ATCC 6538 • Burkholderia cepacia DSM 7288 • Pseudomonas putida DSM 12735
# The samples were inoculated with the bacterial mix at day 0 and 7 to obtain 10E+06 to 10E+07 CFU/ml inoculation in the test sample and stored at 25° C. for 21 days. CFU was determined before re-inoculation at day 7 and on days 14 and 21.
# Any CFU value at day 7 (d7), day 14 (d14) or day 21 (d21) obtained with a sample according to the invention containing 2-phenoxyethanol and amide (MDW+2.0% PE+x % Amide) lower than the respective value of the “comparative 2” example (MOW+2.0% by weight of 2-phenoxyethanol) indicates a better performance.
# [5] = test system: bacterial mix: Escherichia coli DSM 1576, Alcaligenes faecalis DSM 13644, Pseudomonas aeruginosa ATCC 15442, Staphylococcus aureus ATCC 6538, Burkholderia …; assay: Preservative activity in a manual dishwashing composition (MDW, pH 7.1) with 1.0% 2-phenoxyethanol against bacterial mix (Example 2.5); conditions: MDW + 1.0% PE + 1.0% amide
# Protocol: A manual dish wash detergent (MOW) of pH 7.1 containing the following components was used:
# as §4
# The samples were inoculated with the bacterial mix at day 0 and 7 to obtain 10E+06 to 10E+07 CFU/ml inoculation in the test sample and stored at 25° C. for 21 days. CFU was determined before re-inoculation at day 7 and on day 21.
# Any CFU value at day 7 (d7) or day 21 (d21) obtained with a sample according to the invention containing 2-phenoxyethanol and amide (MDW+1.0% PE+1.0% Amide) lower than the respective value of the comparative example (MDW+1% by weight of 2-phenoxyethanol) indicates a better performance.
# [6] = test system: bacterial mix: Escherichia coli DSM 1576, Alcaligenes faecalis DSM 13644, Pseudomonas aeruginosa ATCC 15442, Staphylococcus aureus ATCC 6538, Burkholderia …; assay: Preservative activity of a basic composition (10% PG in water, pH 7) with 4,4'-dichloro-2-hydroxydiphenyl ether (diclosan) against bacterial contamination (Example 2.2); conditions: day 7
# Protocol: as §1, with “0.015%” for “0.36%”, “4,4′-dichloro-2-hydroxydiphenyl ether (diclosan)” for “2-phenoxyethanol (PE)”, “0.04 or 0.1%” for “0.04%”, “amides” for “amide”, “aeruginosa” for “aeuginosa”
# The samples were inoculated with the bacterial mix at day 0 to obtain 10E+06 to 10E+07 CFU/ml inoculation in the test sample and stored at 25° C. for 7 days.
# CFU was determined at day 7.
# Any CFU value at day 7 (d7) obtained with a sample according to the invention containing diclosan and amide (10% PG+0.015% diclosan+Amide in water) lower than the respective value of the “comparative 3” example (10% by weight of propyleneglycol+0.015% by weight of 4,4′-dichloro-2-hydroxydiphenyl ether (diclosan) in water) indicates a better performance.
# [7] = MDW + 0.25% amide, no PE (Comparative 1c)
# [8] = MDW + 5.0% amide, no PE (Comparative 1a)
compound,measurement,setting,value
CCCCC(CC)CNC(=O)/C=C\C(=O)O (centres unmarked) [Maleic acid N-2-ethylhexyl-amide],d7 [CFU/ml],[1],545 CFU/ml
same,d14 [CFU/ml],[1],"22,000 CFU/ml"
same,d21 [CFU/ml],[1],"20,500 CFU/ml"
same,d7 [CFU/ml],[2],875 CFU/ml
same,d14 [CFU/ml],[2],"8,500 CFU/ml"
same,d21 [CFU/ml],[2],"18,500 CFU/ml"
same,d7 [CFU/ml],[3]; MDW + 1.0% PE + 0.6% amide,"14,500 CFU/ml"
same,d14 [CFU/ml],[3]; MDW + 1.0% PE + 0.6% amide,"2,900 CFU/ml"
same,d21 [CFU/ml],[3]; MDW + 1.0% PE + 0.6% amide,225 CFU/ml
same,d7 [CFU/ml],[4]; [7],">100,000 CFU/ml"
same,d14 [CFU/ml],[4]; [7],">100,000 CFU/ml"
same,d21 [CFU/ml],[4]; [7],">100,000 CFU/ml"
same,d7 [CFU/ml],"[4]; MDW + 1.0% amide, no PE",">100,000 CFU/ml"
same,d14 [CFU/ml],"[4]; MDW + 1.0% amide, no PE",">100,000 CFU/ml"
same,d21 [CFU/ml],"[4]; MDW + 1.0% amide, no PE",">100,000 CFU/ml"
same,d7 [CFU/ml],[4]; MDW + 2.0% PE + 0.25% amide,<10 CFU/ml
same,d14 [CFU/ml],[4]; MDW + 2.0% PE + 0.25% amide,<10 CFU/ml
same,d21 [CFU/ml],[4]; MDW + 2.0% PE + 0.25% amide,<10 CFU/ml
same,d7 [CFU/ml],[4]; MDW + 2.0% PE + 1.0% amide,<10 CFU/ml
same,d14 [CFU/ml],[4]; MDW + 2.0% PE + 1.0% amide,<10 CFU/ml
same,d21 [CFU/ml],[4]; MDW + 2.0% PE + 1.0% amide,<10 CFU/ml
same,d7 [CFU/ml],[4]; MDW + 2.0% PE + 5.0% amide,<10 CFU/ml
same,d14 [CFU/ml],[4]; MDW + 2.0% PE + 5.0% amide,<10 CFU/ml
same,d21 [CFU/ml],[4]; MDW + 2.0% PE + 5.0% amide,<10 CFU/ml
same,d7 [CFU/ml],[4]; [8],">100,000 CFU/ml"
same,d14 [CFU/ml],[4]; [8],">100,000 CFU/ml"
same,d21 [CFU/ml],[4]; [8],">100,000 CFU/ml"
"C=CCCCCCCCC(=O)N(C)C [N,N-dimethyl 9-decenoylamide]",d7 [CFU/ml],[5]; day 7,<10 CFU/ml
same,d21 [CFU/ml],[5]; day 21,<10 CFU/ml
"Oc1cc(Cl)ccc1Oc1ccc(Cl)cc1 [diclosan, 4,4′-dichloro-2-hydroxydiphenyl ether, reference compound]",d7 [CFU/ml],"[6]; 10% PG + 0.015% diclosan, no amide (Comparative)",">100,000 CFU/ml"
CCCCCCCCCC(=O)N1CCOCC1 [n-Decanoyl-morpholine],d7 [CFU/ml],[1],<10 CFU/ml
same,d14 [CFU/ml],[1],30 CFU/ml
same,d21 [CFU/ml],[1],190 CFU/ml
same,d7 [CFU/ml],[2],55 CFU/ml
same,d14 [CFU/ml],[2],<10 CFU/ml
same,d21 [CFU/ml],[2],35 CFU/ml
same,d7 [CFU/ml],[3]; MDW + 1.0% PE + 1.0% amide,"1,200 CFU/ml"
same,d14 [CFU/ml],[3]; MDW + 1.0% PE + 1.0% amide,305 CFU/ml
same,d21 [CFU/ml],[3]; MDW + 1.0% PE + 1.0% amide,245 CFU/ml
same,d7 [CFU/ml],[6]; 10% PG + 0.015% diclosan + 0.04% amide,"41,500 CFU/ml"
same,d7 [CFU/ml],"[6]; 10% PG + 0.04% amide, no diclosan (Comparative 1a)",">100,000 CFU/ml"
"CCCCCCCC(=O)N(C)C [n-Octanoyl-N,N-dimethylamide]",d7 [CFU/ml],[1],25 CFU/ml
same,d14 [CFU/ml],[1],"2,100 CFU/ml"
same,d21 [CFU/ml],[1],"5,550 CFU/ml"
"CCCCN(CCCC)C(=O)CC [n-Propanoyl-N,N-dibutylamide]",d7 [CFU/ml],[1],"39,500 CFU/ml"
same,d14 [CFU/ml],[1],"39,000 CFU/ml"
same,d21 [CFU/ml],[1],"23,500 CFU/ml"
same,d7 [CFU/ml],[2],"1,750 CFU/ml"
same,d14 [CFU/ml],[2],"3,750 CFU/ml"
same,d21 [CFU/ml],[2],"25,000 CFU/ml"
